Test results reported in patent publication US20160363588A1, “URINE SAMPLE ANALYSIS METHOD AND REAGENT KIT FOR URINE SAMPLE ANALYSIS” (SYSMEX CORPORATION, priority 2014, published 2016).

Assays:
Staphylococcus aureus = settings: S. aureus, 1000 ppm acetic acid aqueous solution
Method: (§1) In this example, the antimicrobial activity of acetic acid against various bacteria was evaluated. As a control, a saline was used. The antimicrobial activity was evaluated on the basis of the number of colonies of the bacterium on the solid culture medium.
(§2) To each of an acetic acid aqueous solution and a saline, various species of bacteria were added to a concentration of 1×10^5 cells/mL to obtain bacterial suspensions. Each 100 μL was taken from the obtained bacterial suspensions, and these were taken as samples at day 0 of culture. The remaining bacterial suspensions were cultured for 7 days at 37° C. for E. coli and S. aureus and at 25° C. for P. aeruginosa, and each 100 μL was taken from the obtained bacterial suspensions as samples at day 7 of culture. Each 100 μL of the sample was coated on a heart infusion agar culture medium, and cultured at the respective culture temperatures. The culture time was 20 hours for E. coli, 24 hours for S. aureus and 48 hours for P. aeruginosa. After culturing, the number of colonies on the agar culture medium was counted, and the bacterial number (CFU/mL) was calculated.

Escherichia coli = settings: E. coli, 1000 ppm acetic acid aqueous solution
Method: as §1, §2

Pseudomonas aeruginosa = settings: P. aeruginosa, 1000 ppm acetic acid aqueous solution
Method: as §1, §2

CC(=O)O [acetic acid]
0 CFU/mL: Bacterial number At day 7 (Staphylococcus aureus; cultured 7 days at 37° C.) | Bacterial number At day 7 (Escherichia coli; cultured 7 days at 37° C.) | Bacterial number At day 7 (Pseudomonas aeruginosa; cultured 7 days at 25° C.)
1000 CFU/mL: Bacterial number At day 0 (Staphylococcus aureus; day 0 of culture) | Bacterial number At day 0 (Escherichia coli; day 0 of culture) | Bacterial number At day 0 (Pseudomonas aeruginosa; day 0 of culture)
cannot be proliferated: proliferation of bacteria in the solution (Staphylococcus aureus; culturing for 7 days) | proliferation of bacteria in the solution (Escherichia coli; culturing for 7 days) | proliferation of bacteria in the solution (Pseudomonas aeruginosa; culturing for 7 days)
